Like-named read-outs stand apart in the source and are kept apart here.
Experiments:
[1] = test system: glutathione-S-transferase (GST); conditions: GSH 1 mM, ONE 1 mM
Experimental: GSH (1 or 4 mM) was incubated with 4-ONE (1 mM or 100 μM) in 100 mM potassium phosphate buffer (200 μL) containing 1 mM EDTA (pH 6.5). Reactions were also conducted in the presence of equine or rat GST (10 or 100 units). Similar reactions were performed with 4 mM GSH and 2-[2 Hi]-ONE, 3-[2H]-ONE, or 2,3-[^2H2]-ONE (1 mM). Reaction mixtures were incubated at 37° C. for 1 h and then filtered through an Amicon Ultra-4 5,000 filter, and a 20 μL aliquot was analyzed by LC-MS using gradient system 1.
TOG and ONE were monitored by UV (224 nm) from the reaction between GSH (1 mM) and ONE (1 mM) in the presence of GST (10 or 100 units) for 24 h.

[2] = test system: EA.hy 926 endothelial cells; experiment: Analysis of GSH adducts (TOG) in ONE-treated endothelial cells by stable isotope dilution LC-MRM/MS; type: cell-based; conditions: for detection of the adduct in cells treated with ONE: EA.hy 926 cells
Experimental: EA.hy 926 cells were incubated until they reached 70-80% confluence (approximately 2×10^6 cells). DMEM was removed and replaced with FBS-free DMEM prior to treatment with varying concentrations of ONE dissolved in ethanol. The final concentration of ethanol in the culture medium was <0.1%. […] […] […] The cell lysate flow-through and cell media (40 μL of each) were each analyzed in duplicate by LC-MRM/MS using gradient system 4 on the Finnigan Quantum Ultra AM mass spectrometer. The internal standard [^2H3]-ONE-GSH adduct IIb was prepared from 9-[2H3]-ONE and GSH. Quantification of endogenous ONE-GSH adduct IIb was performed from the peak area ratios for the transition m/z 426 [ONE-GSH adduct IIb, protonated molecule (MH+)]→m/z 280 (MH+—CONHCH2CO2H—CONH2) compared to the transition m/z 429 (MH^+, [^2H3]-ONE-GSH adduct IIb internal standard)→m/z 283 (MH+—CONHCH2CO2H—CONH2). Intracellular and extracellular ONE-GSH adduct IIb concentrations were determined by interpolation from a standard curve prepared by adding a fixed amount of [^2H3]-ONE-GSH adduct IIb (10 ng) to increasing amounts of authentic ONE-GSH adduct IIb in the blank lysis buffer or incubation medium (range 0.2 ng/mL to 50 ng/mL). A typical regression line for a standard curve of area ratios compared with ONE-GSH adduct IIb concentrations [ng/mL] in the blank lysis buffer was y) 0.065x +0.0045 (r^2=0.9999).

[3] = test system: EA.hy 926 endothelial cells; experiment: Analysis of GSH adducts in endothelial cells subjected to oxidative stress (t-BuOOH/FeII); type: cell-based; conditions: 10 μM t-BuOOH/500 μM FeII
Experimental: EA.hy 926 cells were incubated until they reached 70-80% confluence (approximately 2×10^6 cells). DMEM was removed and replaced with FBS-free DMEM prior to treatment with t-BuOOH (10 μM) and Fe^II (500 μM, ferrous sulfate). Cells were collected after 30 min, and intracellular GSH adduct concentrations were quantified by stable isotope dilution LC-MRM/MS as described above. Channels corresponding to the specific MRM transitions of the ONE-GSH adduct IIb and its trideuterated internal standard were monitored as described above. MRM transitions for HNE- and ONO-GSH adducts m/z 464 (MH^+)→m/z 308 (MH^+—C9H16O2) were also monitored. Quantification of diastereomeric HNE-GSH adducts was conducted by determining the ratio of the area of the HNE-GSH adducts signal to the area of [^2H3]-ONE-GSH adduct IIb. Intracellular concentrations of HNE-GSH adducts were determined with reference to a standard curve constructed in lysis buffer using authentic standards of unlabeled HNE-GSH adducts as described above for the ONE-GSH adduct IIb.

[4] = incubated with 1% TFA, 37° C., 24 h
Experimental: A portion of ONE-GSH adduct IIb was then incubated with 1% TFA at 37° C. for 24 h. The reaction mixture (20 μL) was analyzed by LC-MS using gradient system 1.

Compound: CCCCCC(=O)/C=C/C=O [ONE, 4-oxo-2(E)-nonenal]
- reaction rate with 100 units of GST relative to 10 units [1]: 6 times
- ONE still left in the reaction mixture ([1]; 10 units of GST, after 24 h): 6%
- ONE consumed ([1]; 10 units of GST, by 4 h): 58%
- consumption of ONE ([1]; 100 units of GST, after 4 h): 93%
- ONE remaining ([1]; 100 units of GST, after 24 h): not detectable
- ONE consumed ([1]; 100 units of GST, by 40 min): 52%
- ONE concentration at which the cells were no longer viable ([2]; EA.hy 926 endothelial cells): > 20 /<M
- ONE concentration at which TOG was detected in the extracellular milieu ([2]; LC-MRM/MS): ≥ 1 µM
- ONE concentration at which intracellular TOG could be quantified ([2]; LC-MRM/MS): ≥ 5 /iM

Compound: CCCCCc1c2ccn1C(C(=O)O)CCC(=O)NC(C(=O)NCC(=O)O)CSc1ccn(c1CCCCC)C(C(=O)O)CCC(=O)NC(C(=O)NCC(=O)O)CS2 (stereo not drawn) [adduct III, 7,19-bis-(carboxymethyl-carbamoyl)-5,17-dioxo-25,26-dipentyl-9,21-dithia-1,6,13,18-tetraaza-tricyclo[20.2.1.110.13]hexacosa-10(26),11,22(25),23-tetraene-2,14-dicarboxylic acid]
- detection of the adduct in cells treated with ONE [2]: unable to detect
- detection of the adduct in cells subjected to oxidative stress [3]: unable to detect

Compound: CCCCCc1c(SCC(NC(=O)CCC(N)C(=O)O)C(=O)NCC(=O)O)ccn1C(CCC(=O)NC(CS)C(=O)NCC(=O)O)C(=O)O (stereo not drawn) [adduct Ia, 2-amino-4-[2-(1-{1-carboxy-3-[1-(carboxymethyl-carbamoyl)-2-mercapto-ethylcarbamoyl]-propyl}-2-pentyl-1H-pyrrol-3-ylsulfanyl)-1-(carboxymethyl-carbamoyl)-ethylcarbamoyl]-butyric acid]
- detection of the adduct in cells treated with ONE [2]: unable to detect
- detection of the adduct in cells subjected to oxidative stress [3]: unable to detect

Compound: (2S,7R)-7-[iV-(carboxymethyl)carbamoyl]-5-oxo-12-pentyl-9-thia-1,6-diazabicyclo[8.2.1]trideca-10(13),11-diene-2-carboxylic acid [TOG]
- incubation time to maximal formation of TOG ([1]; 10 units of GST): 24 h
- incubation time to maximal formation of TOG ([1]; 100 units of GST): 4 h
- TOG as share of the intracellular total GSH at the start of the incubation (10 nmol) ([2]; 20 fiM ONE for 30 min): 15.4%
- total TOG ([2]; 20 fiM ONE for 30 min): 1.54 nmol
- intracellular concentration of TOG ([2]; after the addition of 20 μM ONE (printed 20 μL; 20/<M)): 46.1 µM
- intracellular TOG, maximum of dose-dependent increase ([2]; after the addition of ONE): 46.1 pmol/2×10^6 cells
- concentration of intracellular TOG ([2]; cells incubated with 5 fiU ONE for 0.5 h): 2.8 µM
- conversion to dehydrated product (adduct IV) [4]: quantitative conversion
